Results: PMC12704303, “Production of RPSL12-TetR fusion and development of two multiplex methods for simultaneous detection of tetracyclines and aminoglycosides in pork” (Food Chemistry: X, 2025)
In brackets after ≈: the same amount, converted by molar mass.

Test system: T1, RPSL12-TetR
T1 construct: gene rpsL; single-chain fusion RPSL12 (372 bp) - linker (45 bp) - TetR (636 bp), total 1053 bp, in pET-32a(+), His-tag, expressed in E. coli host, Ni-NTA from soluble supernatant, about 41 kDa
Test: microplate direct competition chemiluminescence, coated fusion protein, STR-ALP tracer
Type: binding, Escherichia coli
Details: competition with streptomycin-ALP conjugate (RPSL12 part); blank pork extract; 37 °C, 30 min
Description: microplate direct competition chemiluminescence, coated fusion protein, STR-ALP tracer on RPSL12-TetR

Point of comparison: `CCN[C@@H]1C[C@H](N)[C@@H](O[C@H]2O[C@H](CN)CC[C@H]2N)[C@H](O)[C@H]1O[C@H]1OC[C@](C)(O)[C@H](NC)[C@H]1O` [ETM], “IC50” value 17 ng/mL (≈ 35.6 nM). Against it:
- NCC[C@H](O)C(=O)N[C@@H]1C[C@H](N)[C@@H](O[C@H]2O[C@H](CN)[C@@H](O)[C@H](O)[C@H]2O)[C@H](O)[C@H]1O[C@H]1O[C@H](CO)[C@@H](O)[C@H](N)[C@H]1O [AMK] — 3.3-fold lower, 5.1 ng/mL (≈ 8.71 nM)
- CN[C@@H]1[C@@H](O)[C@@H](O[C@@H]2[C@@H](O)[C@H](O[C@H]3O[C@H](CN)[C@@H](O)[C@H](O)[C@H]3O)[C@@H](N)C[C@H]2NC(=O)[C@@H](O)CN)OC[C@]1(C)O [ISM] — 4.7-fold lower, 3.6 ng/mL (≈ 6.32 nM)
- NC[C@H]1O[C@H](O[C@H]2[C@H](O)[C@@H](O[C@H]3O[C@H](CO)[C@@H](O)[C@H](N)[C@H]3O)[C@H](N)C[C@@H]2N)[C@H](O)[C@@H](O)[C@@H]1O [KAN] — 2.7-fold lower, 6.4 ng/mL (≈ 13.2 nM)
- CNC[C@@H]1CC[C@@H](N)[C@@H](O[C@H]2[C@H](O)[C@@H](O[C@H]3OC[C@](C)(O)[C@H](NC)[C@H]3O)[C@H](N)C[C@@H]2N)O1 [MIM] — 4.5-fold lower, 3.8 ng/mL (≈ 8.2 nM)
- CCN[C@@H]1C[C@H](N)[C@@H](O[C@H]2OC(CN)=CC[C@H]2N)[C@H](O)[C@H]1O[C@H]1OC[C@](C)(O)[C@H](NC)[C@H]1O [NTM] — within 1.5-fold, 16 ng/mL (≈ 33.6 nM)
- NC[C@@H]1O[C@H](O[C@H]2[C@@H](O)[C@H](O[C@@H]3[C@@H](O)[C@H](N)C[C@H](N)[C@H]3O[C@H]3O[C@H](CO)[C@@H](O)[C@H](O)[C@H]3N)O[C@@H]2CO)[C@H](N)[C@@H](O)[C@@H]1O [PMM] — 3.1-fold lower, 5.4 ng/mL (≈ 8.77 nM)
- CN[C@@H]1[C@H](O)[C@H](NC)[C@H]2O[C@@]3(O)C(=O)C[C@@H](C)O[C@H]3O[C@@H]2[C@H]1O [SPM] — 1.7-fold lower, 9.8 ng/mL (≈ 29.5 nM)
- CN[C@@H]1[C@H](O[C@H]2[C@H](O[C@H]3[C@H](O)[C@@H](O)[C@H](N=C(N)N)[C@@H](O)[C@@H]3N=C(N)N)O[C@@H](C)[C@]2(O)C=O)O[C@@H](CO)[C@H](O)[C@H]1O [STR] — 3.3-fold lower, 5.1 ng/mL (≈ 8.77 nM)

Test system: T1, RPSL12-TetR
Test: microplate direct competition chemiluminescence, coated fusion protein, MC-HRP tracer
Type: binding, Escherichia coli
Details: competition with minocycline-HRP conjugate (TetR part); blank pork extract; 37 °C, 30 min
Description: microplate direct competition chemiluminescence, coated fusion protein, MC-HRP tracer on RPSL12-TetR

Point of comparison: `CN(C)[C@@H]1C(O)=C(C(=O)NCNCCCC[C@H](N)C(=O)O)C(=O)[C@@]2(O)C(O)=C3C(=O)c4c(O)cccc4[C@@](C)(O)[C@H]3C[C@@H]12` [LMC], “IC50” value 0.0427 ng/mL (≈ 0.0709 nM). Against it:
- CN(C)[C@@H]1C(=O)C(C(N)=O)=C(O)[C@@]2(O)C(=O)C3=C(O)c4c(O)ccc(Cl)c4[C@@](C)(O)[C@H]3C[C@@H]12 [CTC] — within 1.5-fold, 0.0344 ng/mL (≈ 0.0718 nM)
- C[C@H]1c2cccc(O)c2C(=O)C2=C(O)[C@]3(O)C(=O)C(C(N)=O)=C(O)[C@@H](N(C)C)[C@@H]3[C@@H](O)[C@@H]21 [DC] — within 1.5-fold, 0.0395 ng/mL (≈ 0.0889 nM)
- CN(C)[C@@H]1C(=O)C(C(N)=O)=C(O)[C@@]2(O)C(=O)C3=C(O)c4c(O)ccc(Cl)c4[C@@H](O)[C@H]3C[C@@H]12 [DMC] — within 1.5-fold, 0.0287 ng/mL (≈ 0.0617 nM)
- CN(C)c1ccc(O)c2c1C[C@H]1C[C@H]3[C@H](N(C)C)C(O)=C(C(N)=O)C(=O)[C@@]3(O)C(O)=C1C2=O [MC] — within 1.5-fold, 0.0357 ng/mL (≈ 0.078 nM)
- C=C1c2cccc(O)c2C(O)=C2C(=O)[C@]3(O)C(O)=C(C(N)=O)C(=O)[C@@H](N(C)C)[C@@H]3[C@@H](O)[C@H]12 [MTC] — within 1.5-fold, 0.0418 ng/mL (≈ 0.0945 nM)
- CN(C)[C@@H]1C(=O)C(C(N)=O)=C(O)[C@@]2(O)C(=O)C3=C(O)c4c(O)cccc4[C@@](C)(O)[C@H]3[C@H](O)[C@@H]12 [OTC] — within 1.5-fold, 0.0402 ng/mL (≈ 0.0873 nM)
- CN(C)[C@@H]1C(=O)C(C(N)=O)=C(O)[C@@]2(O)C(=O)C3=C(O)c4c(O)cccc4C[C@H]3C[C@@H]12 [SC] — within 1.5-fold, 0.0378 ng/mL (≈ 0.0912 nM)
- CN(C)[C@@H]1C(=O)C(C(N)=O)=C(O)[C@@]2(O)C(=O)C3=C(O)c4c(O)cccc4[C@@](C)(O)[C@H]3C[C@@H]12 [TC] — within 1.5-fold, 0.038 ng/mL (≈ 0.0855 nM)
- CN(C)c1cc(NC(=O)CNC(C)(C)C)c(O)c2c1C[C@H]1C[C@H]3[C@H](N(C)C)C(=O)C(C(N)=O)=C(O)[C@@]3(O)C(=O)C1=C2O [TIC] — within 1.5-fold, 0.0414 ng/mL (≈ 0.0707 nM)
